System: 898857-211-R-J1-PDC complex spheroids, growth % test/control
Assay: Anticancer human tumor 898857-211-R-J1-PDC patient-derived melanoma cell line growth inhibition [RAS]
Settings: for IC50: curve of first compound; for viability, T/C: stronger effect = lower value
Procedure, shortened: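 Multi-cell-type spheroids: tumor cells plus HUVEC endothelial cells and mesenchymal stem cells. RAS-pathway inhibitors were combined with targeted agents, each dosed in half-log steps down from clinical Cmax, or from 10 microM when Cmax was unknown.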

[1] = second compound 0.000949 µM, first compound 0.0316 µM
[2] = second compound 0.000949 µM, first compound 0.1 µM
[3] = second compound 0.000949 µM, first compound 0.316 µM
[4] = second compound 0.000949 µM, first compound 1 µM
[5] = second compound 0.000949 µM, first compound 3.16 µM
[6] = second compound 0.000949 µM, first compound 10 µM
[7] = second compound 0.003 µM, first compound 0.0316 µM
[8] = second compound 0.003 µM, first compound 0.1 µM
[9] = second compound 0.003 µM, first compound 0.316 µM
[10] = second compound 0.003 µM, first compound 1 µM
[11] = second compound 0.003 µM, first compound 3.16 µM
[12] = second compound 0.003 µM, first compound 10 µM
[13] = second compound 0.00949 µM, first compound 0.0316 µM
[14] = second compound 0.00949 µM, first compound 0.1 µM
[15] = second compound 0.00949 µM, first compound 0.316 µM
[16] = second compound 0.00949 µM, first compound 1 µM
[17] = second compound 0.00949 µM, first compound 3.16 µM
[18] = second compound 0.00949 µM, first compound 10 µM
[19] = second compound 0.03 µM, first compound 0.0316 µM
[20] = second compound 0.03 µM, first compound 0.1 µM
[21] = second compound 0.03 µM, first compound 0.316 µM
[22] = second compound 0.03 µM, first compound 1 µM
[23] = second compound 0.03 µM, first compound 3.16 µM
[24] = second compound 0.03 µM, first compound 10 µM
[25] = second compound 0.0949 µM, first compound 0.0316 µM
[26] = second compound 0.0949 µM, first compound 0.1 µM
[27] = second compound 0.0949 µM, first compound 0.316 µM
[28] = second compound 0.0949 µM, first compound 1 µM
[29] = second compound 0.0949 µM, first compound 3.16 µM
[30] = second compound 0.0949 µM, first compound 10 µM
[31] = second compound 0.3 µM, first compound 0.0316 µM
[32] = second compound 0.3 µM, first compound 0.1 µM
[33] = second compound 0.3 µM, first compound 0.316 µM
[34] = second compound 0.3 µM, first compound 1 µM
[35] = second compound 0.3 µM, first compound 3.16 µM
[36] = second compound 0.3 µM, first compound 10 µM
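Note: spheroids exposed to compound for seven days before readout.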
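Throughout, for viability, T/C: 100% = DMSO vehicle control wells.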

Compound: CC(C)NCC(C(=O)N1CCN(c2ncnc3c2C(C)CC3O)CC1)c1ccc(Cl)cc1 (stereo unspecified) + CCn1c(-c2cc(N3CCN(C)CC3)cnc2C(C)OC)c2c3cc(ccc31)-c1csc(n1)CC(NC(=O)C1CC1C)C(=O)N1CCCC(N1)C(=O)OCC(C)(C)C2
- IC50 (second compound 0.000949 µM): > 10 µM
- IC50 (second compound 0.003 µM): 7.54 µM
- IC50 (second compound 0.00949 µM): 7.68 µM
- IC50 (second compound 0.03 µM): 6.37 µM
- IC50 (second compound 0.0949 µM): 8.16 µM
- IC50 (second compound 0.3 µM): 6.16 µM
- viability, T/C [1]: 105%
- viability, T/C [2]: 105%
- viability, T/C [3]: 103%
- viability, T/C [4]: 76.7%
- viability, T/C [5]: 58.6%
- viability, T/C [6]: 50.5%
- viability, T/C [7]: 102%
- viability, T/C [8]: 106%
- viability, T/C [9]: 93.5%
- viability, T/C [10]: 82.1%
- viability, T/C [11]: 63.3%
- viability, T/C [12]: 45.6%
- viability, T/C [13]: 85.4%
- viability, T/C [14]: 101%
- viability, T/C [15]: 82%
- viability, T/C [16]: 82%
- viability, T/C [17]: 61.4%
- viability, T/C [18]: 46.6%
- viability, T/C [19]: 94%
- viability, T/C [20]: 109%
- viability, T/C [21]: 96%
- viability, T/C [22]: 75.7%
- viability, T/C [23]: 61.2%
- viability, T/C [24]: 43.5%
- viability, T/C [25]: 99.4%
- viability, T/C [26]: 107%
- viability, T/C [27]: 104%
- viability, T/C [28]: 79.6%
- viability, T/C [29]: 69.1%
- viability, T/C [30]: 45.6%
- viability, T/C [31]: 99.9%
- viability, T/C [32]: 97.2%
- viability, T/C [33]: 86.2%
- viability, T/C [34]: 91.8%
- viability, T/C [35]: 63.9%
- viability, T/C [36]: 39.8%

Compound: CC(Nc1ccc2c(c1)OCCn1cc(N3C(=O)OCC3C(F)F)nc1-2)C(N)=O (stereo unspecified) + CCn1c(-c2cc(N3CCN(C)CC3)cnc2C(C)OC)c2c3cc(ccc31)-c1csc(n1)CC(NC(=O)C1CC1C)C(=O)N1CCCC(N1)C(=O)OCC(C)(C)C2
- IC50 (second compound 0.000949 µM): > 10 µM
- IC50 (second compound 0.003 µM): > 10 µM
- IC50 (second compound 0.00949 µM): 6.62 µM
- IC50 (second compound 0.03 µM): 9.25 µM
- IC50 (second compound 0.0949 µM): 9.6 µM
- IC50 (second compound 0.3 µM): 8.39 µM
- viability, T/C [1]: 102%
- viability, T/C [2]: 90.3%
- viability, T/C [3]: 96%
- viability, T/C [4]: 73.8%
- viability, T/C [5]: 66%
- viability, T/C [6]: 53.2%
- viability, T/C [7]: 93.4%
- viability, T/C [8]: 95.7%
- viability, T/C [9]: 83.6%
- viability, T/C [10]: 76.4%
- viability, T/C [11]: 73.3%
- viability, T/C [12]: 52.2%
- viability, T/C [13]: 82.5%
- viability, T/C [14]: 80.4%
- viability, T/C [15]: 80.2%
- viability, T/C [16]: 73.5%
- viability, T/C [17]: 63%
- viability, T/C [18]: 42.7%
- viability, T/C [19]: 103%
- viability, T/C [20]: 91.5%
- viability, T/C [21]: 80.9%
- viability, T/C [22]: 72.6%
- viability, T/C [23]: 68.5%
- viability, T/C [24]: 45.5%
- viability, T/C [25]: 106%
- viability, T/C [26]: 85.1%
- viability, T/C [27]: 95.3%
- viability, T/C [28]: 80.5%
- viability, T/C [29]: 67.8%
- viability, T/C [30]: 48.1%
- viability, T/C [31]: 98.3%
- viability, T/C [32]: 99.3%
- viability, T/C [33]: 84.2%
- viability, T/C [34]: 71.7%
- viability, T/C [35]: 66.1%
- viability, T/C [36]: 46.4%

Compound: O=C(c1ccc(F)c(F)c1Nc1ccc(I)cc1F)N1CC(O)([C@@H]2CCCCN2)C1 + CCn1c(-c2cc(N3CCN(C)CC3)cnc2C(C)OC)c2c3cc(ccc31)-c1csc(n1)CC(NC(=O)C1CC1C)C(=O)N1CCCC(N1)C(=O)OCC(C)(C)C2
- IC50 (second compound 0.000949 µM): < 0.00316 µM
- IC50 (second compound 0.003 µM): < 0.00316 µM
- IC50 (second compound 0.00949 µM): < 0.00316 µM
- IC50 (second compound 0.03 µM): < 0.00316 µM
- IC50 (second compound 0.0949 µM): < 0.00316 µM
- IC50 (second compound 0.3 µM): < 0.00316 µM
- viability, T/C (second compound 0.000949 µM, first compound 0.00316 µM): 39.8%
- viability, T/C (second compound 0.000949 µM, first compound 0.01 µM): 24.2%
- viability, T/C [1]: 16.8%
- viability, T/C [2]: 13.9%
- viability, T/C [3]: 13%
- viability, T/C [4]: 9.63%
- viability, T/C (second compound 0.003 µM, first compound 0.00316 µM): 33.1%
- viability, T/C (second compound 0.003 µM, first compound 0.01 µM): 21.3%
- viability, T/C [7]: 17.5%
- viability, T/C [8]: 12.4%
- viability, T/C [9]: 10.3%
- viability, T/C [10]: 6.63%
- viability, T/C (second compound 0.00949 µM, first compound 0.00316 µM): 32%
- viability, T/C (second compound 0.00949 µM, first compound 0.01 µM): 20.5%
- viability, T/C [13]: 17.8%
- viability, T/C [14]: 14.2%
- viability, T/C [15]: 11.3%
- viability, T/C [16]: 3.23%
- viability, T/C (second compound 0.03 µM, first compound 0.00316 µM): 24.2%
- viability, T/C (second compound 0.03 µM, first compound 0.01 µM): 20.7%
- viability, T/C [19]: 17.8%
- viability, T/C [20]: 12.8%
- viability, T/C [21]: 7.8%
- viability, T/C [22]: 2.22%
- viability, T/C (second compound 0.0949 µM, first compound 0.00316 µM): 24.6%
- viability, T/C (second compound 0.0949 µM, first compound 0.01 µM): 20.2%
- viability, T/C [25]: 14.7%
- viability, T/C [26]: 10.4%
- viability, T/C [27]: 3.52%
- viability, T/C [28]: 1.46%
- viability, T/C (second compound 0.3 µM, first compound 0.00316 µM): 24.1%
- viability, T/C (second compound 0.3 µM, first compound 0.01 µM): 19.1%
- viability, T/C [31]: 13.3%
- viability, T/C [32]: 8.51%
- viability, T/C [33]: 3.03%
- viability, T/C [34]: 1.17%

From PubChem BioAssay AID2060882 (Molecular Pharmacology Branch, DTP, NCI, 2025)
